Assays:
[1] = tested on: Reactive oxygen species (ROS) measured on keratinocytes after exposure to Ultraviolet light A (UVA); assay: ROS formation in keratinocytes after UVA exposure (DCA fluorescence); type: cell-based; conditions: Homo sapiens, Keratinocyte, light or radiation study, 0.15 mg/ml (positive control)
Experimental: To the test the different antioxidant activity of the composition according to the Example 1 versus the Comparative Compositions 2-5 of the Example 2, they were tested at different concentrations (0.500-0.016 mg/ml) on Reactive oxygen species (ROS) measured on keratinocytes after exposure to Ultraviolet light A (UVA), with and without the tested sample, evaluating the cell viability after UVA stress by Neutral red uptake (NRU) test: cell survival assay using cultured human keratinocytes in monolayer cultures with and without the tested sample.
Human primary keratinocytes come from paediatric foreskins, with ethic committee's permission, from pre-planned routine surgery. The epidermis was separated from dermis by incubation with […] and trypsinized to generate single cell suspension.
Keratinocytes were cultivated in Dulbecco's modified Eagle's and Ham's F12 media (3:1) enriched with 10% foetal calf serum (v/v) and specific enrichments.
These cells multiply in culture until a cell monolayer is reached. […] Once a confluence of 60-70% has been reached, fresh medium is added with scalar dilutions of the tested sample. Non-treated cells are used as negative controls. At this stage the cell cultures were treated with different dilutions of the test compound and of the controls to obtain final concentrations ranging from 0.5 to 0.016 mg/ml. For each dilution, three replicate tests were performed. The product was dissolved in the culture medium. […] The cell vitality is determined after UVA exposure and without UV exposure.
After having exposed the cells to the tested sample, the cell culture medium is removed and the cells are washed in PBS. […] DCA is reacting with free radicals in the medium, originating a fluorescent derivative, and the fluorimeter reading allows obtaining a quantitative data related to the ROS content in the cells.
After suitable incubation, the DCA solution has been discharged and the cells have then been exposed for different times to UVA irradiation and soon after read in the fluorimeter, as described (Toxicol. Letters 1997-93:47-54).

[2] = tested on: skin structure and firmness; conditions: two concentrations, 0.1% and 1%; cited from earlier work

SMILES | inhibition at 150 µg/mL ([1]; 4′ UVA (1 J/cm2)) [%] | inhibition at 150 µg/mL ([1]; 8′ UVA (2 J/cm2)) [%] | inhibition at 150 µg/mL ([1]; 12′ UVA (3 J/cm2)) [%] | improving skin structure and firmness [2]
O=C1O[C@H]([C@@H](O)CO)C(O)=C1O [Vitamin C] | 19.6 | 13.4 | 14.8 | –
COc1cc(O)c(CC=C(C)C)c(O)c1C(=O)/C=C/c1ccc(O)cc1 [xanthohumol] | – | – | – | resulted efficacious

Source: patent US20160175241A1, “COMPOSITION FOR SKIN ANTI-AGEING TREATMENT” (POLICHEM SA, priority 2013, published 2016)
